# Patent publication US20240269304A1, “BCL-XL INHIBITOR ANTIBODY-DRUG CONJUGATES AND METHODS OF USE THEREOF” (Novartis AG, priority 2020, published 2024)
# Where two headings read alike, the source gives them in different places.
# System: H1650 cells
# Assay: CellTiterGlo (CTG) cell viability, 3D, 120 h, H1650 (Example 8)
# Type: cell-based, human
# Conditions: Homo sapiens, NCI-H1650, H1650 3D
# Procedure: H1650 cells were cultivated in RPMI supplemented with 10% heat inactivated fetal bovine serum, penicillin (100 IU/ml), streptomycin (100 μg/ml) and L-glutamine (2 mM). Cell lines were cultured at 37° C. in a humidified atmosphere containing 5% 002. Cells were seeded in 96 microwell round bottom plates (96 microwell Low attachment plates , Costar reference 7007) and exposed to the payloads or ADCs for 120 h (serially diluted; 9 concentrations each, duplicates). Effects of payloads or ADCs on cell viability were assessed after 5 days of incubation at 37° C./5% CO2 by quantification of cellular ATP levels using CellTiterGlo at 75 μL reagent/well. All the conditions were tested in duplicates. Luminescence was quantified on a multipurpose plate reader. IC50S were calculated using standard four-parametric curve fitting. […] Each experiment was performed at least twice, with results being reproducible.
# [1] = experiment n1, read-out: H1650 3D CTG IC50 n1
# [2] = experiment n2, read-out: H1650 3D CTG IC50 n2
# [3] = mean of n1 and n2, read-out: H1650 3D CTG IC50 Mean of n1 and n2
SMILES,IC50 [1],IC50 [2],IC50 [3]
"Cc1c(Nc2nc3ccccc3s2)nnc2c1CCCN2c1nc(C(=O)O)c(CCCOc2ccc(C#CCN(C)CC[C@H](O)CO)cc2F)s1 [P34, 2-[3-(1,3-benzothiazol-2-ylamino)-4-methyl-6,7-dihydro-5H-pyrido[2,3-c]pyridazin-8-yl]-5-[3-[4-[3-[[(3S)-3,4-dihydroxybutyl]-methyl-amino]prop-1-ynyl]-2-fluoro-phenoxy]propyl]thiazole-4-carboxylic acid]",0.65 nM,0.87 nM,0.76 nM
"Cc1c(Nc2nc3ccccc3s2)nnc2c1CCCN2c1ccc(-c2cnn(C[C@]34C[C@@]5(C)C[C@](C)(C[C@](CCCN6CCCC6)(C5)C3)C4)c2C)c(C(=O)O)n1 [P41, 6-[3-(1,3-benzothiazol-2-ylamino)-4-methyl-6,7-dihydro-5H-pyrido[2,3-c]pyridazin-8-yl]-3-[1-[[3,5-dimethyl-7-(3-pyrrolidin-1-ylpropyl)-1-adamantyl]methyl]-5-methyl-pyrazol-4-yl]pyridine-2-carboxylic acid]",3.3 nM,2.1 nM,2.7 nM
"Cc1ccc2sc(Nc3nnc4c(c3C)CCCN4c3ccc(-c4cnn(C[C@]56C[C@]7(C)C[C@](C)(C5)C[C@@](OCCN5CCCC5)(C7)C6)c4C)c(C(=O)O)n3)nc2c1 [P42, 3-[1-[[3,5-dimethyl-7-(2-pyrrolidin-1-ylethoxy)-1-adamantyl]methyl]-5-methyl-pyrazol-4-yl]-6-[4-methyl-3-[(5-methyl-1,3-benzothiazol-2-yl)amino]-6,7-dihydro-5H-pyrido[2,3-c]pyridazin-8-yl]pyridine-2-carboxylic acid]",9.4 nM,12.9 nM,11.2 nM
"COc1ccc2sc(Nc3nnc4c(c3C)CCCN4c3ccc(-c4cnn(C[C@]56C[C@]7(C)C[C@](C)(C5)C[C@@](OCCN5CCCC5)(C7)C6)c4C)c(C(=O)O)n3)nc2c1 [P43, 3-[1-[[3,5-dimethyl-7-(2-pyrrolidin-1-ylethoxy)-1-adamantyl]methyl]-5-methyl-pyrazol-4-yl]-6-[3-[(5-methoxy-1,3-benzothiazol-2-yl)amino]-4-methyl-6,7-dihydro-5H-pyrido[2,3-c]pyridazin-8-yl]pyridine-2-carboxylic acid]",0.53 nM,0.5 nM,0.52 nM
"Cc1c(Nc2nc3ccccc3s2)nnc2c1CCCN2c1ccc(-c2cnn(CC34CC5(C)CC(C)(C3)CC(OCCNCC(=O)O)(C5)C4)c2C)c(C(=O)O)n1 [P47, 6-[3-(1,3-benzothiazol-2-ylamino)-4-methyl-6,7-dihydro-5H-pyrido[2,3-c]pyridazin-8-yl]-3-[1-[[3-[2-(carboxymethylamino)ethoxy]-5,7-dimethyl-1-adamantyl]methyl]-5-methyl-pyrazol-4-yl]pyridine-2-carboxylic acid]",6.54 nM,7.35 nM,6.95 nM
"Cc1c(Nc2nc3ccccc3s2)nnc2c1CCCN2c1ccc(-c2cnn(CC34CC5(C)CC(C)(C3)CC(OCCN(C)CC(=O)O)(C5)C4)c2C)c(C(=O)O)n1 [P48, 6-[3-(1,3-benzothiazol-2-ylamino)-4-methyl-6,7-dihydro-5H-pyrido[2,3-c]pyridazin-8-yl]-3-[1-[[3-[2-[carboxymethyl(methyl)amino]ethoxy]-5,7-dimethyl-1-adamantyl]methyl]-5-methyl-pyrazol-4-yl]pyridine-2-carboxylic acid]",2.27 nM,2.79 nM,2.53 nM
"Cc1c(Nc2nc3ccccc3s2)nnc2c1CCCN2c1ccc(-c2cnn(CC34CC5(C)CC(C)(CC(CCCN(C)CCO)(C5)C3)C4)c2C)c(C(=O)O)n1 [P49, 6-[3-(1,3-benzothiazol-2-ylamino)-4-methyl-6,7-dihydro-5H-pyrido[2,3-c]pyridazin-8-yl]-3-[1-[[3-[3-[2-hydroxyethyl(methyl)amino]propyl]-5,7-dimethyl-1-adamantyl]methyl]-5-methyl-pyrazol-4-yl]pyridine-2-carboxylic acid]",1.3 nM,1.12 nM,1.21 nM
"COCCCN(C)CCCC12CC3(C)CC(C)(C1)CC(Cn1ncc(-c4ccc(N5CCCc6c5nnc(Nc5nc7ccccc7s5)c6C)nc4C(=O)O)c1C)(C3)C2 [P50, 6-[3-(1,3-benzothiazol-2-ylamino)-4-methyl-6,7-dihydro-5H-pyrido[2,3-c]pyridazin-8-yl]-3-[1-[[3-[3-[3-methoxypropyl(methyl)amino]propyl]-5,7-dimethyl-1-adamantyl]methyl]-5-methyl-pyrazol-4-yl]pyridine-2-carboxylic acid]",0.55 nM,0.21 nM,0.38 nM
"COCCCNCCCC12CC3(C)CC(C)(C1)CC(Cn1ncc(-c4ccc(N5CCCc6c5nnc(Nc5nc7ccccc7s5)c6C)nc4C(=O)O)c1C)(C3)C2 [P51, 6-[3-(1,3-benzothiazol-2-ylamino)-4-methyl-6,7-dihydro-5H-pyrido[2,3-c]pyridazin-8-yl]-3-[1-[[3-[3-(3-methoxypropylamino)propyl]-5,7-dimethyl-1-adamantyl]methyl]-5-methyl-pyrazol-4-yl]pyridine-2-carboxylic acid]",1.97 nM,2.83 nM,2.4 nM
"Cc1c(Nc2nc3ccccc3s2)nnc2c1CCCN2c1ccc(-c2cnn(CC34CC5(C)CC(C)(CC(CCCN6CCCCCC6)(C5)C3)C4)c2C)c(C(=O)O)n1 [P52, 3-[1-[[3-[3-(azepan-1-yl)propyl]-5,7-dimethyl-1-adamantyl]methyl]-5-methyl-pyrazol-4-yl]-6-[3-(1,3-benzothiazol-2-ylamino)-4-methyl-6,7-dihydro-5H-pyrido[2,3-c]pyridazin-8-yl]pyridine-2-carboxylic acid]",0.73 nM,0.38 nM,0.555 nM
"Cc1c(Nc2nc3ccccc3s2)nnc2c1CCCN2c1ccc(-c2cnn(CC34CC5(C)CC(C)(CC(CCCNCC(=O)O)(C5)C3)C4)c2C)c(C(=O)O)n1 [P53, 6-[3-(1,3-benzothiazol-2-ylamino)-4-methyl-6,7-dihydro-5H-pyrido[2,3-c]pyridazin-8-yl]-3-[1-[[3-[3-(carboxymethylamino)propyl]-5,7-dimethyl-1-adamantyl]methyl]-5-methyl-pyrazol-4-yl]pyridine-2-carboxylic acid]",37.7 nM,35 nM,36.4 nM

# Molecules with a lower IC50 [1], results first:
IC50 [1],IC50 [2],IC50 [3],SMILES
0.23 nM,0.27 nM,0.25 nM,"Cc1c(Nc2nc3ccccc3s2)nnc2c1CCCN2c1ccc(-c2cnn(C[C@]34C[C@]5(C)C[C@](C)(C3)C[C@@](OCCN(C)CCO)(C5)C4)c2C)c(C(=O)O)n1 [P35, 6-[3-(1,3-benzothiazol-2-ylamino)-4-methyl-6,7-dihydro-5H-pyrido[2,3-c]pyridazin-8-yl]-3-[1-[[3-[2-[2-hydroxyethyl(methyl)amino]ethoxy]-5,7-dimethyl-1-adamantyl]methyl]-5-methyl-pyrazol-4-yl]pyridine-2-carboxylic acid]"
0.26 nM,0.31 nM,0.29 nM,"COCCCN(C)CCOC12CC3(C)CC(C)(CC(Cn4ncc(-c5ccc(N6CCCc7c6nnc(Nc6nc8ccccc8s6)c7C)nc5C(=O)O)c4C)(C3)C1)C2 [P36, 6-[3-(1,3-benzothiazol-2-ylamino)-4-methyl-6,7-dihydro-5H-pyrido[2,3-c]pyridazin-8-yl]-3-[1-[[3-[2-[3-methoxypropyl(methyl)amino]ethoxy]-5,7-dimethyl-1-adamantyl]methyl]-5-methyl-pyrazol-4-yl]pyridine-2-carboxylic acid]"
0.4 nM,1.2 nM,0.8 nM,"Cc1c(Nc2nc3ccccc3s2)nnc2c1CCCN2c1ccc(-c2cnn(C[C@]34C[C@]5(C)C[C@](C)(C3)C[C@@](OCCN(C)CCCCO)(C5)C4)c2C)c(C(=O)O)n1 [P37, 6-[3-(1,3-benzothiazol-2-ylamino)-4-methyl-6,7-dihydro-5H-pyrido[2,3-c]pyridazin-8-yl]-3-[1-[[3-[2-[4-hydroxybutyl(methyl)amino]ethoxy]-5,7-dimethyl-1-adamantyl]methyl]-5-methyl-pyrazol-4-yl]pyridine-2-carboxylic acid]"
0.19 nM,0.33 nM,0.26 nM,"Cc1c(Nc2nc3ccccc3s2)nnc2c1CCCN2c1ccc(-c2cnn(CC34CC5(C)CC(C)(C3)CC(OCCN3CCCCC3)(C5)C4)c2C)c(C(=O)O)n1 [P38, 6-[3-(1,3-benzothiazol-2-ylamino)-4-methyl-6,7-dihydro-5H-pyrido[2,3-c]pyridazin-8-yl]-3-[1-[[3,5-dimethyl-7-[2-(1-piperidyl)ethoxy]-1-adamantyl]methyl]-5-methyl-pyrazol-4-yl]pyridine-2-carboxylic acid]"
0.21 nM,0.34 nM,0.28 nM,"Cc1c(Nc2nc3ccccc3s2)nnc2c1CCCN2c1ccc(-c2cnn(C[C@]34C[C@]5(C)C[C@](C)(C3)C[C@@](OCCN3CCOCC3)(C5)C4)c2C)c(C(=O)O)n1 [P39, 6-[3-(1,3-benzothiazol-2-ylamino)-4-methyl-6,7-dihydro-5H-pyrido[2,3-c]pyridazin-8-yl]-3-[1-[[3,5-dimethyl-7-(2-morpholinoethoxy)-1-adamantyl]methyl]-5-methyl-pyrazol-4-yl]pyridine-2-carboxylic acid]"
